Assay [1] relates to human hair follicles. The assay is described as follows: tissue or blood. Format: cell-based. Particulars: read-out: inhibition of oxygen consumption by the follicles.
Experimental: Follicles were isolated from human facelift skin and grown in culture according to the methods described (Philpott et al J.Cell.Sci.97: pp 463-470 1990). For the oxygen consumption experiments a Clarke electrode apparatus (Tank Brothers Limited, Cambridge, England) was used.
The equipment was set up in accordance with the manufacturers instructions, the temperature of the cell being maintained at 37° C. using a circulating water bath. The output of the electrode was recorded using Perkin Elmer Turbochrom 4 data logging software.
The apparatus contains a Teflon membrane in the cell which was changed daily and the cell calibrated and prepared for use as follows. […] After recording this new ‘zero oxygen’ baseline the medium was reoxygenated by bubbling air through and the new baseline recorded. […]
After calibration, a fresh 2 ml sample of William's E medium gassed with 5% carbon dioxide in air was added, the plunger inserted into the cell ensuring that no air bubble was trapped, and the output from the cell recorded to give a rate for oxygen consumption of the cell. […] The new rate of oxygen consumption was recorded for a sufficient time as to enable its accurate determination. […]
From the calibration of the electrode, a curve was derived from which a baseline reading corresponding to zero oxygen level could be derived. […]
Assay [2] has as its system human hair follicles. The assay is described as follows: Evolution of radiolabelled CO2 from radiolabelled substrate by cultured hair follicles. Format: cell-based. The note with it: five follicles per tube, 37° C. Here is the method: Hair follicles were isolated from human scalp skin obtained from four different female subjects; hair follicles were isolated from human scalp skin and placed into a 6 well culture plate at a density of 15 follicles/well in 5 mL complete Williams E medium containing penicillin (50 μg/mL), streptomycin (50 IU/mL), L-glutamine (2 mM), hydrocortisone (10 ng/mL) and insulin (10 μg/mL). In addition a cocktail of amino acids consisting of arginine (0.45 mM) proline (1 mM), glycine (2.6 mM) and alanine (1 mM) was also added since these are though to improve the maintenance of hair follicles in vitro. After an overnight incubation (37° C., 5% CO2 in air) to ensure continued growth following the isolation procedure, follicles were cut to a uniform length and incubated until required.
For each experimental time point, five follicles were transferred to each of 3 eppendorf tubes in triplicate with 10 μL medium. […] After the seals had been removed the medium was sampled for counting the remaining radioactivity (3×10 μL). The KOH solution was analysed by liquid scintillation counting (Beckman LS 60001C) after addition of 18 mL Hionic Fluor (Packard).
Results from the mean of each triplicate control were subtracted from the corresponding mean from the experimental results. These combined results were then analysed by regression. […]

“Also recorded” adds a separate entry of the source. Counter-ions that a name gives are not always drawn.

For orientation: inhibition means the share of the control response that was lost under treatment. As to `C[C@]12CC[C@H]3[C@@H](CC[C@]4(O)C[C@@H](O)CC[C@]34C=O)[C@@]1(O)CC[C@@H]2C1=CC(=O)OC1` [strophanthidin, Strophanthidin], the inhibition at 100 µM in the assay on human hair follicles [1] (0.1 mM strophanthidin, 160 follicles in 2 ml medium, 37° C.) is 76%.
As for `O=C(O)CC(O)(CC(=O)O)C(=O)O` [citrate, [1,5-^14C]-sodium citrate], the “average production of CO2 evolved from metabolism of citrate” value in the assay on human hair follicles [2] ([1,5-14C]-sodium citrate, about 3 μCi in 100 μL medium, up to 12 h) is given as 0.23 (±0.04) μmol CO2. Besides, the “uptake and metabolism by hair follicles (radiolabelled CO2 evolution), result in words” value in the assay with human hair follicles [2] (radiolabelled substrate in medium) is “linear increase in the amount of CO2 evolved; also recorded: taken up into hair follicles and used as an energy source”.
Consider `[N-]=[N+]=[N-]` [sodium azide], for which the inhibition at 2000 µM in the assay with human hair follicles [1] lay in the range of 54 to 87%.

For the origin of these results see US20020031483A1, “HAIR TREATMENT COMPOSITION COMPRISING A SUGAR OR CARBOHYDRATE FOR THE PURPOSES OF PARTICIPATING IN OXYGEN CONSUMPTION OF A HAIR METHOD AND USE” (priority 1998, published 2002).
